Legend:
[1] = tested on: IL-13 induced STAT6 phosphorylation in BEAS-2B human lung epithelial cells; conditions: BEAS-2B cells
[2] = tested on: IL-4 induced STAT6 phosphorylation in THP-1 human monocytic cells; conditions: THP-1 cells

## Cc1cc(Nc2cc3nc(CN4CCOCC4)ccc3c(N[C@@H]3C[C@H]4CCC[C@@H](C3)N4S(C)(=O)=O)n2)n[nH]1 [Example 5-22]
[1]
  BEAS2B pIC50: A (A represents a pEC50 value ≥7.5 (EC50≤32 nM))

## Cc1cc(Nc2nc(N[C@@H]3C[C@H]4CC[C@@H](C3)N4S(=O)(=O)c3cncc(F)c3)c3cccnc3c2F)n[nH]1 [Example 8-5]
[1]
  BEAS2B pIC50: A (A represents a pEC50 value ≥7.5 (EC50≤32 nM))

## COc1ccc2c(N[C@@H]3C[C@H]4CC[C@@H](C3)N4CCCC#N)nc(Nc3cc(C)[nH]n3)cc2n1 [Example 5-2]
[1]
  BEAS2B pIC50: A (A represents a pEC50 value ≥7.5 (EC50≤32 nM))

## C=CCOC(=O)N1[C@@H]2CC[C@H]1C[C@H](Nc1nc(Nc3cc(C)[nH]n3)cc3nc(CN4CCOCC4)ccc13)C2 [Example 5-17]
[1]
  BEAS2B pIC50: A (A represents a pEC50 value ≥7.5 (EC50≤32 nM))

## Cc1cc(Nc2cc3ncc(S(C)(=O)=O)cc3c(N[C@@H]3C[C@H]4CC[C@@H](C3)N4Cc3ccncc3)n2)n[nH]1 [Example 6-59]
[1]
  BEAS2B pIC50: C (C represents a pEC50 value <6.7 (EC50>200 nM))

## C=CCOC(=O)N1[C@@H]2CC[C@H]1C[C@H](Nc1nc(Nc3cc(C)[nH]n3)cc3nc(OC)ccc13)C2 [Example 5-7]
[1]
  BEAS2B pIC50: A (A represents a pEC50 value ≥7.5 (EC50≤32 nM))

## Cc1cc(Nc2nc(N[C@@H]3C[C@H]4CCC[C@@H](C3)N4S(=O)(=O)c3cncc(F)c3)c3cccnc3c2F)n[nH]1 [Example 8-13]
[1]
  BEAS2B pIC50: A (A represents a pEC50 value ≥7.5 (EC50≤32 nM))

## Cc1cc(Nc2cc3ncccc3c(N[C@@H]3C[C@H]4CCC[C@@H](C3)N4C(=O)c3ccc(C#N)nc3)n2)n[nH]1 [Example 2-28]
[1]
  BEAS2B pIC50: C (C represents a pEC50 value <6.7 (EC50>200 nM))

## COc1cnc2cc(Nc3cc(C)[nH]n3)nc(N[C@@H]3C[C@H]4CC[C@@H](C3)N4C(=O)OCC(C)C)c2c1 [Example 6-25]
[1]
  BEAS2B pIC50: A (A represents a pEC50 value ≥7.5 (EC50≤32 nM))

## Cc1cc(Nc2nc(N[C@@H]3C[C@H]4CC[C@@H](C3)N4C(=O)CN(C)C)c3cccnc3c2F)n[nH]1 [Example 8-7]
[2]
  THP-1 IL4 pIC50: C (C represents a pEC50 value <6.7 (EC50>200 nM))

## Cc1cc(Nc2cc3ncccc3c(N[C@@H]3C[C@H]4CC[C@@H](C3)N4CCCF)n2)n[nH]1 [Example 1-9]
[2]
  THP-1 IL4 pIC50: C (C represents a pEC50 value <6.7 (EC50>200 nM))

## COC(=O)c1cnc2cc(Nc3cc(C)[nH]n3)nc(N[C@@H]3C[C@H]4CC[C@@H](C3)N4C(=O)CN(C)C)c2c1 [Example 6-39]
[2]
  THP-1 IL4 pIC50: C (C represents a pEC50 value <6.7 (EC50>200 nM))

## Cc1cc(Nc2cc3ncccc3c(N[C@@H]3C[C@H]4CC[C@@H](C3)N4CC(N)=O)n2)n[nH]1 [Example 1-6]
[2]
  THP-1 IL4 pIC50: C (C represents a pEC50 value <6.7 (EC50>200 nM))

## C=CCOC(=O)N1[C@@H]2CCC[C@H]1C[C@H](Nc1nc(Nc3cc(C)[nH]n3)cc3ncccc13)C2 [Example 3-8]
[2]
  THP-1 IL4 pIC50: A (A represents a pEC50 value ≥7.5 (EC50≤32 nM))

## Cc1cc(Nc2cc3ncc(S(C)(=O)=O)cc3c(N[C@@H]3C[C@H]4CC[C@@H](C3)N4CCF)n2)n[nH]1 [Example 6-54]
[2]
  THP-1 IL4 pIC50: C (C represents a pEC50 value <6.7 (EC50>200 nM))

## CCC(=O)N1[C@@H]2CCC[C@H]1C[C@H](Nc1nc(Nc3cc(C)[nH]n3)cc3ncccc13)C2 [Example 2-15]
[2]
  THP-1 IL4 pIC50: A (A represents a pEC50 value ≥7.5 (EC50≤32 nM))

## Cc1cc(Nc2cc3ncccc3c(N[C@@H]3C[C@H]4CCC[C@@H](C3)N4CC(=O)N[C@@H]3CCOC3=O)n2)n[nH]1 [Example 1-41]
[2]
  THP-1 IL4 pIC50: C (C represents a pEC50 value <6.7 (EC50>200 nM))

## CCOCC(=O)N1[C@@H]2CC[C@H]1C[C@H](Nc1nc(Nc3cc(C)[nH]n3)cc3ncccc13)C2 [Example 2-4]
[2]
  THP-1 IL4 pIC50: C (C represents a pEC50 value <6.7 (EC50>200 nM))

## Cc1cc(Nc2cc3ncccc3c(N[C@@H]3C[C@H]4CC[C@@H](C3)N4CCC(F)(F)F)n2)n[nH]1 [Example 1-10]
[2]
  THP-1 IL4 pIC50: C (C represents a pEC50 value <6.7 (EC50>200 nM))

## Cc1cc(Nc2cc3ncccc3c(N[C@@H]3C[C@H]4CCC[C@@H](C3)N4S(=O)(=O)C3CNC3)n2)n[nH]1 [Example 4-21]
[2]
  THP-1 IL4 pIC50: C (C represents a pEC50 value <6.7 (EC50>200 nM))

Source: US10947254B2, “Methods for treating ulcerative colitis using 3-((1R,3s,5S)-3-((7-((5-methyl-1H-pyrazol-3-yl)amino)-1,6-naphthyridin-5-yl)amino)-8-azabicyclo[3.2.1]octan-8-yl)propanenitrile” (priority 2015, dated 2021)
